{"source": "patent US9675595B2", "about": "“Synergistic combinations of PI3K- and MEK-inhibitors” (Novartis AG, priority 2011, dated 2017)", "format_in_all_cases": "cell-based", "key": {"[1]": {"tested_on": "CW-2", "assay": "Cell viability (CellTiterGlo, 72 h), Example 1", "conditions": "Homo sapiens, single agent", "description": "(§1) The colorectal cancer cell lines SW1417, COLO 205, LS411N, HT-29, RKO, OUMS-23, SW620, LoVo, SW480, SW837, COLO-678, LS123-NCI—H747, HCT-15, HCT116, DLD-1, T84, SW948, LS180, GP2d, HuTu 80, CW-2, SW48, NCI—H716, C2Bbe1, SNU—C1 and KM12 are obtained from the American Type Culture Collection (ATCC) and maintained in their respective culture medium as specified by the provider. These colorectal cancer cell lines have the following mutation status:\n(§2) For assessment of combination effects, cells are seeded into 384-well plates at 500 cells/well and incubated overnight. The contents of the compound master plates are pre-diluted with 1:200 (1 μL compound solution to 200 μL cell […] culture medium containing 10% fetal clf serum) before transferring 5 μL of this pre-dilution to the cell plates containing 20 μL cell culture medium, to achieve the targeted final compound concentrations as well as a vehicle (DMSO) concentration of 0.09%.\n(§3) Effects of single agents as well as their checkerboard combinations on cell viability are assessed after 72 hours of incubation at 37° C./5% CO2 by quantification of cellular ATP levels (CellTiterGlo, Promega) using 25 μL reagent/well and n=2 repliate plates per condition. The number/viability of cells at the time of compound addition was likewise assessed and used to estimate the population doubling time of the particular cell line. Single agent IC50s are calculated using standard four-parametric curve fitting (SLFit, model 205). Potential synergistic interactions between compound combinations are assessed using the Excess Inhibition 2D matrix according to the Loewe additivity model and are reported as Synergy Score. In addition, compound combinations are assessed by combination index analysis derived from isobologram graphs at 50% inhibition, and are reported as best combination index (CI), which corresponds to the lowest value on the isobologram. All synergy calculations are performed using CHALICE software (Lehár et al, Nat Biotechnol. (July 2009), 27(4): […])."}, "[2]": {"tested_on": "HCT-15", "assay": "Cell viability (CellTiterGlo, 72 h), Example 1", "conditions": "Homo sapiens, single agent", "description": "as §1, §2, §3"}, "[3]": {"tested_on": "SW480", "assay": "Cell viability (CellTiterGlo, 72 h), Example 1", "conditions": "Homo sapiens, single agent", "description": "as §1, §2, §3"}, "[4]": {"tested_on": "CRC and NSCLC cell lines that carry KRAS mutations", "assay": "Cell proliferation assay (CellTiter-Glo, 72 hrs), dose matrix, Example 2, all six cell lines", "conditions": "in the combination dose matrix", "description": "The cell lines used in this study were purchased from American Type Cell Collection, including non-small cell lung cancer cell lines NCI—H23 & NCI—H2122 (which carry both KRAS and LKB1 mutations), NCI—H358 (which carries KRAS mutation), NCI—H460 (which carries KRAS, LKB1 and PIK3CA mutations), and Colorectal Cancer cell line SW480 (which carries KRAS mutation), HCT-15 (which carries KRAS PIK3CA mutations). All the cell lines were cultured at 37° C. in a 5% CO2 incubator in RPMI 1640 (ATCC #30-2001) media complemented with 10% fetal bovine serum, 2 mmol/L glutamine and 1% sodium pyruvate.\nCell viability was determined by measuring cellular ATP content using the CellTiter-Glo® Luminescent Cell Viability Assay (Promega #G7573) according to manufacturer's protocol. Briefly, 500-900 cells/well were plated on clear-bottom 384-well black plates (Greiner#781091) in quadruplicates or duplicates with 30 ul/well growth media, cells were allowed to attach overnight and followed by 72 hrs of incubation with various concentration of drugs or drug combinations (10 ul/well), at the end of the drug treatment, 30 ul/well of the CellTiter-Glo regent were added to each well to lyse the cells, and luminescence signals were recorded on a Envision plate reader. […]"}}, "note": "Read-outs that look alike come from different tables or passages of the source.", "data": [{"smiles": "Cc1nc(NC(=O)N2CCC[C@H]2C(N)=O)sc1-c1ccnc(C(C)(C)C(F)(F)F)c1", "note": "[COMPOUND A, (S)-pyrrolidine-1,2-dicarboxylic acid 2-amide 1-({4-methyl-5-[2-(2,2,2-trifluoro-1,1-dimethyl-ethyl)-pyridin-4-yl]-thiazol-2-yl}-amide)]", "values": [{"measurement": "IC50", "setting": "[1]; read-out: Cmpd. A IC50", "value": "> 10.8", "unit": "µM"}, {"measurement": "IC50", "setting": "[2]; read-out: Cmpd. A IC50", "value": 6.72, "unit": "µM"}, {"measurement": "IC50", "setting": "[3]; read-out: Cmpd. A IC50", "value": 9.35, "unit": "µM"}, {"measurement": "doses at which synergistic regions are typically observed", "setting": "[4]", "value": "above 150 nM"}]}, {"smiles": "Cn1cnc2c(F)c(Nc3ccc(Br)cc3F)c(C(=O)NOCCO)cc21", "note": "[COMPOUND B, 6-(4-bromo-2-fluorophenylamino)-7-fluoro-3-methyl-3H-benzoimidazole-5-carboxylic acid (2-hydroxyethoxy)-amide]", "values": [{"measurement": "IC50", "setting": "[1]; read-out: Cmpd. B IC50", "value": "> 2.7", "unit": "µM"}, {"measurement": "IC50", "setting": "[2]; read-out: Cmpd. B IC50", "value": "> 2.7", "unit": "µM"}, {"measurement": "IC50", "setting": "[3]; read-out: Cmpd. B IC50", "value": 2.03, "unit": "µM"}, {"measurement": "doses at which synergistic regions are typically observed", "setting": "[4]", "value": "≥ 80", "unit": "nM"}]}]}
